According to PubChem BioAssay (NCI):
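96-well plates; 48 h exposure; 5 concentrations. Endpoints by linear interpolation between flanking doses. Not reached: highest tested concentration assigned. The concentration for 50% growth inhibition is given as GI50. At the TGI there is no net growth.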

What was measured:
Experiment in all cases: growth of human tumour cells (NCI), 48 h
CCRF-CEM leukemia = test system: CCRF-CEM leukemia
HL-60(TB) leukemia = test system: HL-60(TB) leukemia
MOLT-4 leukemia = test system: MOLT-4 leukemia
SF-539 CNS = test system: SF-539 CNS
SK-MEL-5 melanoma = test system: SK-MEL-5 melanoma
UACC-257 melanoma = test system: UACC-257 melanoma
DU-145 prostate = test system: DU-145 prostate
MCF7 breast = test system: MCF7 breast
MDA-MB-231 breast = test system: MDA-MB-231 breast
SR leukemia = test system: SR leukemia

SMILES | TGI (CCRF-CEM leukemia) | TGI (HL-60(TB) leukemia) | TGI (MOLT-4 leukemia) | TGI (SF-539 CNS) | TGI (SK-MEL-5 melanoma) | TGI (UACC-257 melanoma) | TGI (DU-145 prostate) | TGI (MCF7 breast) | TGI (MDA-MB-231 breast) | TGI (SR leukemia) | GI50 (CCRF-CEM leukemia) | GI50 (DU-145 prostate) | GI50 (HL-60(TB) leukemia) | GI50 (MCF7 breast) | GI50 (MDA-MB-231 breast) | GI50 (MOLT-4 leukemia) | GI50 (SF-539 CNS) | GI50 (SK-MEL-5 melanoma) | GI50 (UACC-257 melanoma)
CN(CCCN1C(=O)c2cccc3cc([N+](=O)[O-])cc(c23)C1=O)CCN(C)CCCN1C(=O)c2cccc3cc([N+](=O)[O-])cc(c23)C1=O | > 39.3 µM | > 39.3 µM | > 39.3 µM | > 39.3 µM | > 39.3 µM | > 39.3 µM | – | – | – | – | – | – | – | – | – | – | – | – | –
C=C(C)C1CCC2=CC(CC3(C)OC3C3=CC(C(=O)OC)=C(C1)O3)OC2=O (stereo not given) | > 100 µM | – | > 100 µM | > 100 µM | > 100 µM | > 100 µM | > 100 µM | > 100 µM | > 100 µM | > 100 µM | – | – | – | – | – | – | – | – | –
CCOC(=O)C(=O)Nc1c(C)cccc1C(C)(C)C | – | – | > 100 µM | > 100 µM | > 100 µM | > 100 µM | – | – | – | – | – | – | – | – | – | – | – | – | –
CC(C)(C)C(=O)c1c(C(F)(F)F)n([O-])c2cc(Cl)c(Cl)cc2[n+]1=O | 1.19 µM | 0.446 µM | 0.987 µM | 1.04 µM | 1.1 µM | 2.86 µM | 0.803 µM | 0.566 µM | 2.9 µM | – | 0.619 µM | 0.353 µM | 0.188 µM | 0.168 µM | 1.44 µM | 0.437 µM | 0.563 µM | 0.277 µM | 1.28 µM
COc1cccc2c(SCC(=O)Nc3ccccc3-c3ccccc3NC(=O)CSc3c4ccccc4nc4c(OC)cccc34)c3ccccc3nc12 | > 100 µM | > 100 µM | > 100 µM | > 100 µM | > 100 µM | – | – | – | – | > 100 µM | – | – | – | – | – | – | – | – | –
O=C(COC(=O)c1cccc2c(=O)c3ccccc3[nH]c12)Nc1ccc(Cl)cc1 | > 100 µM | > 100 µM | > 100 µM | > 100 µM | > 100 µM | > 100 µM | – | – | – | > 100 µM | – | – | – | – | – | – | – | – | –
Cc1cc(-c2nc3n(c2/C=N/N=C(N)N)CCS3)c(C)s1 | 37.1 µM | > 100 µM | > 100 µM | 31.3 µM | 29.9 µM | – | 34.7 µM | – | 27.1 µM | – | 12.7 µM | 18.2 µM | 36.9 µM | – | 13.4 µM | 30.1 µM | 16.8 µM | 16.3 µM | –
C=CC(=O)Nc1ccccc1CC(c1c[nH]c2ccccc12)c1c[nH]c2ccccc12 | 54.2 µM | – | 46.4 µM | 36.6 µM | 33.4 µM | 40.5 µM | – | – | – | – | – | – | – | – | – | – | – | – | –
O=C(O)/C(Cl)=C(Cl)/C=N/NC(=O)c1cc2ccccc2cc1O | 51.7 µM | > 100 µM | 34.9 µM | > 100 µM | 24.6 µM | 65.6 µM | – | – | – | 39.3 µM | – | – | – | – | – | – | – | – | –
CCCCCN(CCCCC)C(=O)[C@H](CCC(=O)O)NC(=O)c1cc2ccccc2[nH]1 | > 100 µM | 61.8 µM | 64.4 µM | > 100 µM | – | > 100 µM | – | – | – | – | – | – | – | – | – | – | – | – | –
CN(C)C(=S)/N=c1\ssc(=S)n1Cc1ccco1 | 42.3 µM | 8.2 µM | > 83.7 µM | 7.66 µM | 38.2 µM | > 100 µM | – | > 100 µM | 84.2 µM | > 100 µM | – | – | – | – | – | – | – | – | –
CC1(C2COC(=O)C2)SCCCS1 (stereo not given) | > 100 µM | > 100 µM | > 100 µM | > 100 µM | > 100 µM | > 100 µM | – | – | – | > 100 µM | – | – | – | – | – | – | – | – | –
Cc1ccc(C2[C@H]3C(=O)N(c4ccc(Cc5ccc(N6C(=O)[C@@H]7ON(c8ccccc8)C(c8ccc(C)cc8)[C@@H]7C6=O)cc5)cc4)C(=O)[C@H]3ON2c2ccccc2)cc1 (stereo not given in full) | > 100 µM | > 100 µM | > 100 µM | > 100 µM | > 100 µM | > 100 µM | – | – | – | – | – | – | – | – | – | – | – | – | –
C[C@]12Cc3conc3C(O)=C1CC[C@@H]1C2CC[C@@]2(C)C1CC[C@]2(C)O (stereo not given in full) | 46.5 µM | 10.7 µM | 42.3 µM | 60.6 µM | 30.7 µM | 80.4 µM | – | – | – | – | – | – | – | – | – | – | – | – | –
CCCS(=O)c1nc(COC(=O)NC)c(COC(=O)NC)n1C (stereo not given) | > 100 µM | > 100 µM | > 100 µM | > 100 µM | > 100 µM | > 100 µM | – | > 100 µM | – | > 100 µM | – | – | – | – | – | – | – | – | –
COC(=O)c1ccc(C(=O)OC)c2nc3cc(Cl)ccc3nc12 | > 100 µM | > 100 µM | > 100 µM | > 100 µM | > 100 µM | > 100 µM | – | – | – | – | – | – | – | – | – | – | – | – | –
CN(C)CC1C(=O)O[C@H]2[C@H]1CC/C(COC(=O)NCc1ccc(Cn3c(=O)sn(CCCI)c3=O)cc1)=C\CC[C@@]1(C)O[C@@H]21 (stereo not given in full) | 7.88 µM | – | 3.43 µM | 8.75 µM | 13.3 µM | 11.7 µM | 2.16 µM | – | 1.8 µM | – | 1.46 µM | 1.07 µM | – | – | 0.906 µM | 0.947 µM | 2.57 µM | 6.53 µM | 4.04 µM
Cc1cc2c3c([n+](C)c4ccc(F)cc4c3c1)-c1cc(F)ccc1N2C | > 100 µM | > 100 µM | > 100 µM | 20.6 µM | 22.1 µM | 30.5 µM | > 100 µM | 44.6 µM | 85.3 µM | – | 7.17 µM | 17.9 µM | 25.4 µM | 14.3 µM | 24.3 µM | 3.28 µM | 3.28 µM | 5.29 µM | 6.2 µM
O=C1c2ccn(CCCNC(CO)(CO)CO)c2C(=O)c2c1c(O)c1ccccc1c2O | 44 µM | – | > 37.2 µM | 25.6 µM | 0.588 µM | > 78.1 µM | 25 µM | 33 µM | 25.2 µM | – | 10 µM | 11.5 µM | – | 13 µM | 8.39 µM | 2.54 µM | 11.4 µM | – | 43.9 µM
Nn1c(-c2cccc(Cl)c2)nc2ccccc2c1=O | > 100 µM | > 100 µM | > 100 µM | > 100 µM | > 100 µM | > 100 µM | – | – | – | – | – | – | – | – | – | – | – | – | –
N#CC(C(=N/O)/C(=N\O)C(C#N)c1ccccc1)c1ccccc1 (stereo not given) | > 100 µM | > 100 µM | > 100 µM | > 100 µM | > 100 µM | > 100 µM | – | – | – | – | – | – | – | – | – | – | – | – | –
CC1=CC(C)(C)Nc2ccc(Cc3ccc4c(c3)C(C)=CC(C)(C)N4)cc21 | 59.6 µM | 34.1 µM | 54 µM | 89.3 µM | 22 µM | 72.1 µM | 76.1 µM | 26.3 µM | 64.2 µM | – | 4.67 µM | 10.1 µM | 5.1 µM | 5.23 µM | 15.7 µM | 4.86 µM | 23.6 µM | 9.05 µM | 7.06 µM
